The Biogen ADME set (Fang et al. 2023)
≈ marks a conversion by molar mass, not a printed value.

Conditions: for aqueous solubility: pH 6.8

SMILES	MDR1-MDCK efflux ratio	intrinsic clearance, human liver microsomes [mL/min/kg]	intrinsic clearance, rat liver microsomes [mL/min/kg]	aqueous solubility [µg/mL]	fraction unbound, human plasma	fraction unbound, rat plasma
COc1ncccc1CNc1ncnc2c1cnn2C	0.967	≤ 4.74	28.8	46.6 (≈ 172 µM)	–	–
O=C(NCC1CC1)c1ccc(-n2ccnc2)nc1	1.08	≤ 4.74	23.2	45.2 (≈ 186 µM)	–	–
Cc1cccc(N(C)C(=O)COC2CCCC2)n1	0.667	44.8	200	59.6 (≈ 240 µM)	–	–
C#Cc1cccc(N(CC(=O)NC(N)=O)Cc2cccs2)c1	2.25	38.5	1610	–	–	–
CNC(=O)[C@H]1O[C@@H](n2cnc3c(NCc4cccc(I)c4)ncnc32)[C@H](O)[C@@H]1O	–	195	3690	–	–	–
Cc1cncc(C2CCN(Cc3cnccn3)CC2)n1	0.65	≤ 4.74	60.6	67.8 (≈ 252 µM)	–	–
Cc1ccc(C(=O)Nc2cccc(C(=O)N(C)C)c2)cn1	23.2	≤ 4.74	≤ 10.7	45.3 (≈ 160 µM)	–	–
c1ccc(Cc2cccc3cc4c(nc23)OCCNC4)cc1	–	24.5	1120	47.8 (≈ 165 µM)	–	–
Cc1csc2nc3n(c(=O)c12)CCNCC3	0.686	7.83	228	–	–	–
Cc1cn2cc(C(=O)N(C)CCO)cc(N[C@@H]3CCOc4cccc(C)c43)c2n1	73.4	83.6	288	–	–	–
CC[C@@H]1C(=O)N(C)c2cnc(-n3ccnc3-c3ccc(F)cc3)nc2N1c1ccn(C)n1	14.2	43.7	413	–	–	–
Cc1nnc(N2CCC(CNc3ccc(C#N)cn3)C2)c(C#N)c1C (centres undefined)	–	–	–	8.15 (≈ 24.4 µM)	–	–
Cc1ccc2c(c1)cc(CNCCc1ccccc1)c1nnnn12	0.45	417	1770	24.9 (≈ 78.5 µM)	–	–
Cc1csc(Nc2ccc(C#N)cc2)n1	0.419	201	620	38.2 (≈ 177 µM)	–	–
CC(C)Cc1ccc(-c2nc(-c3ccc(CN4CC(C(=O)O)C4)cc3)no2)cc1	–	7.6	17	–	–	–
Cc1ncc(-c2ccccn2)c(CCNC(=O)C2CCCC2)n1	7.73	7.32	90.7	–	–	–

SMILES	MDR1-MDCK efflux ratio	intrinsic clearance, human liver microsomes [mL/min/kg]	intrinsic clearance, rat liver microsomes [mL/min/kg]	aqueous solubility [µg/mL]	fraction unbound, human plasma	fraction unbound, rat plasma
Cc1cc(C)c(S(=O)(=O)Nc2ccc(N(C)C)cc2)c(C)c1-n1cnnn1	9.73	118	89.2	2.73 (≈ 7.06 µM)	–	–
C=CC(=O)N1C[C@H](Nc2ncnc3[nH]ccc23)CC[C@@H]1C	65.6	≤ 4.74	27.3	53.7 (≈ 188 µM)	0.673	0.557
CCNc1nc(-c2cccnc2)nc(C)c1C	0.577	49.7	69.8	–	–	–
CCc1ncc2c(n1)CN(c1ccnc(-c3ccccc3)n1)CC2	0.485	36.1	259	34.9 (≈ 110 µM)	–	–
Cc1cccc(NC(=O)c2cncn2-c2ccccc2)n1	–	45.2	165	–	–	–
CCOC(=O)C1(Cc2cc(-c3cccc(F)c3)no2)CCN(Cc2ccccc2O)CC1	–	–	–	0.68 (≈ 1.55 µM)	–	–
CN(Cc1cnccn1)Cc1nc(N)c2ccccc2n1	–	15	458	–	–	–
Cc1c[nH]c(C(=O)NCC2(N3CCCCC3)CCCC2)n1	20.3	7.62	191	–	–	–
CC(=O)N1CCCN(Cc2ccc(C(=O)N3CCCC3)cc2)c2ccccc21	–	227	327	–	–	–
Cc1ccccc1OC1CCN(C(=O)Nc2ccc3c(c2)ncn3C)CC1	8.7	11.4	54.5	26.7 (≈ 73.4 µM)	–	–
CSC[C@H]1CN(Cc2c[nH]c3c(N)ncnc23)C[C@@H]1O	–	≤ 4.74	≤ 10.7	–	–	–
Cn1c(CNc2ccc(C(=N)N)cc2)nc2cc(C(=O)N(CCC(=O)O)c3ccccn3)ccc21	0.503	≤ 4.74	≤ 10.7	4.91 (≈ 10.4 µM)	–	–
Cn1cnnc1CCn1ccnc1-c1cc2ccccc2s1	134	≤ 4.74	25.3	33 (≈ 106 µM)	–	–
Cc1ccc(CNC(=O)CN2CCC(n3nnc4cc(C(F)(F)F)ccc43)CC2)cc1	–	41.4	168	11.5 (≈ 26.6 µM)	–	–
Cc1nc2cc(C(=O)NC34CCCC3NCC4)ccc2c(=O)[nH]1 (centres undefined)	0.754	≤ 4.74	–	–	0.735	–

Results, then the molecule that gave them:

MDR1-MDCK efflux ratio	intrinsic clearance, human liver microsomes [mL/min/kg]	intrinsic clearance, rat liver microsomes [mL/min/kg]	aqueous solubility [µg/mL]	fraction unbound, human plasma	fraction unbound, rat plasma	SMILES
43.2	≤ 4.74	57	–	–	–	c1ccc(Nc2nc(N3CCNCC3)nc(N3CCOCC3)n2)cc1
5.05	≤ 4.74	≤ 10.7	–	–	–	CNCc1cc(N(C)C)nc(C2CCCN2C(=O)COC)n1 (centres undefined)
0.752	20.5	157	34.6 (≈ 130 µM)	–	–	Cc1noc(NCc2cccc(-c3cccnc3)c2)n1
0.434	11.7	747	25.5 (≈ 119 µM)	–	–	NCc1cccnc1OCc1ccccc1
4.46	≤ 4.74	93.1	44.2 (≈ 140 µM)	0.753	0.738	O=C1NCCN(C(=O)c2ccncc2)C1c1ccccc1Cl (centres undefined)
12.4	267	1090	–	0.0394	0.0842	Cc1c(F)cccc1NC(=O)CN1[C@H](Cc2ccccc2)C[C@]2(C)NC(=O)CCC[C@H]12
–	193	2230	24.9 (≈ 96 µM)	–	–	COc1ncc(-c2cccc(N(C)C)c2)c(OC)n1
–	–	–	31.7 (≈ 132 µM)	–	–	Cc1c(Nc2ccc3nccnc3n2)cnn1C
7.03	70.7	210	28.4 (≈ 83.5 µM)	–	–	COc1ncnc2c1CN(Cc1c[nH]nc1-c1ccc(F)cc1)CC2
0.559	24.9	2360	19.2 (≈ 73.7 µM)	–	–	CC(=O)Nc1nc(-c2c(C)cc(C)cc2C)cs1
20.6	≤ 4.74	253	–	–	–	Cc1nn(C(F)F)c(C)c1CC(=O)NCCNC(C)(C)C
–	≤ 4.74	≤ 10.7	41.6 (≈ 165 µM)	–	–	C/N=C(\NC#N)NCCSCc1nc[nH]c1C
2.86	≤ 4.74	293	39.1 (≈ 160 µM)	–	–	CN(C)C(C)(C)CNc1ncnc2ccccc12
6.72	≤ 4.74	≤ 10.7	40 (≈ 153 µM)	–	–	C[C@@H](CO)Nc1nc(C(F)(F)F)nc2[nH]cnc12
–	–	–	97 (≈ 379 µM)	–	–	O=C(COc1ccc(F)cc1F)N1CCNC1=O
1.13	26.6	269	–	–	–	CCCCN1CCN(C(=O)c2cccc(-c3ccc(CO)cc3)c2)CC1
–	5.9	98	52.8 (≈ 163 µM)	–	–	CS(=O)(=O)N1CCC(Nc2ccc3ccc(F)cc3n2)CC1
1.5	≤ 4.74	–	–	0.566	–	NC1CCCC(C(=O)N2CCC(c3c[nH]c4ncccc34)CC2)C1 (centres undefined)
–	–	–	35.5 (≈ 154 µM)	–	–	O=C(Nc1nc2ccccc2[nH]1)C1CCCO1 (centres undefined)
1.19	11.2	≤ 10.7	58.8 (≈ 163 µM)	–	–	N#Cc1c(O)nc2scc(-c3ccc(-c4ccccc4O)cc3)c2c1O
130	≤ 4.74	≤ 10.7	54 (≈ 196 µM)	–	–	CC(=O)NCC1CCN(C(=O)c2ccc(C)nc2)CC1
–	–	–	8.5 (≈ 27.5 µM)	–	–	CN(Cc1sccc1Br)c1nccnc1C#N
–	17.1	261	–	–	–	Cc1cnc(-c2nc(NCc3cccnc3)ncc2-c2cc(C)no2)cn1
32.4	≤ 4.74	≤ 10.7	–	–	–	CCc1nc(C)cc(N2CCCC3(CCNCC3)CC2)n1
7.15	≤ 4.74	37.5	69.6 (≈ 179 µM)	0.71	0.633	O=C1NCCN(C(=O)c2ccc3nccn3c2)C1c1ccccc1C(F)(F)F (centres undefined)
0.236	–	–	0.25 (≈ 1.07 µM)	–	–	Nc1nc2c3ccccc3oc2c2ccccc12
4.87	≤ 4.74	≤ 10.7	–	–	–	O=C(NCc1cnn2cccnc12)c1ccccc1-n1cnnc1
10.3	≤ 4.74	≤ 10.7	57.7 (≈ 199 µM)	–	–	CCNC(=O)N1CCc2nc3ccc(F)cn3c(=O)c2C1
